From patent US8338616B2, “Thiazoliums and their use for treating protein aging associated diseases” (Beijing Molecule Science And Technology Co., Ltd., priority 2008, dated 2012)
Read-outs that look alike come from different tables or passages of the source. Marks after values point to notes of the source that are not given here.

What was measured:
diabetic rats = conditions: for HR / LVEDP / LVSP / Neg dp/dt / Pos dp/dt: 4 weeks
Protocol: Rats were anesthetized with pentobarbital sodium injection (0.8%, 50 mg/kg), subjected to tracheal cannula, heparin anticoagulation, right common carotid artery cannula to left ventricle, communicated with Biopac physiological recorder via pressure transducers to record left ventricular pressure tracing, and the software of Biopac (Acknowledge, Version 3) was used for real-time reacording: heart rate, left ventricular systolic pressure peak (LVSP), maximum rate of change of left intraventricular pressure (±dp/dtmax), left ventricular end diastolic pressure (LVEDP). After 10 min of postoperative stabilization, the above parameters were recorded continuously, and mean values for 30 s were used as the measured values of these parameters.

[1] = tested on: diabetic-hypertension rats
Protocol: The experiment about influence of AGEs breaker on hypotensive effect of nifedipine was performed on a diabetic-hypertension rat model. […] During the experiment, the animals took food freely, and were not interfered with any hypoglycemic drugs or hypotensive drugs.
The compound A was dissolved in distilled water, ready for use. Rats were randomly grouped as diabetic-hypertension control (DM-HTN) group and A (18 mg/kg) group. The drug was introgastrically administered once per day, and an equal amount of distilled water was administered in the diabetic-hypertension control group, for consecutive 4 weeks. After the end of experiment, blood samples were taken, thoracic aorta, liver, kidney were stored at −70° C. for standby use, and used for assays for tissue biochemical indicators and gene expression. Another part of kidney was fixed with 4% paraformaldehyde and used for pathological staining.
Nifedipine powder was formulated with DMSO to form a 5 mg/ml solution, then diluted with 15% ethanol-10% DMSO-25% PEG400 to form a 500 μg/ml solution, and diluted again to form 125 μg/ml, 62.5 μg/ml, 31.25 μg/ml, 15.62 μg/ml, 7.8 μg/ml solutions.
Rats were anesthetized with urethane-chloralose mixture by i.p., subjected to heparin anticoagulation, right common carotid artery cannula, communicated with
Biopac physiological recorder via pressure transducers. Through a right femoral vein remaining needle, nifedipine solutions were injected slowly by 5 batches in an order of concentrations from low to high, and arterial systolic pressure, diastolic pressure, pulse pressure and heart rate change were recorded continuously.

[2] = tested on: NaCl treated diabetic rats modeled with heart failure; assay: Chronic heart failure, first batch, ultrasonic cardiogram evaluation; type: in vivo, rat; conditions: valsartan 10 mg/kg, compound A 18 mg/kg ig
Protocol: The pharmacodynamic evaluation was conducted by using a noninvasive ultrasonic cardiogram method.
Evaluation indexes: (1) morphology indexes: left ventricular posterior wall dimensions (LVPWd), left ventricular diastasis internal diameter (LVDd), end systolic diameter (LVDs); (2) functional indexes: ejection fraction (EF), shortening fraction (FS), ventricular early blood flow filling rate (E), atrial filling rate (A) and ratio of E/A; Doppler tissue image; at cardiac apical four chamber view, the valve ring of anterior mitral valve was used as sampling point, peak early diastolic velocity (Ea peak), peak late diastolic velocity (Aa peak), and Ea/Aa ratio reflected the systolic and diastolic motion of the whole left ventricle.
(§1) SPSS statistic software was used to analyze and treat data, and all data were expressed in mean±standard deviation (Mean±SD).

[3] = tested on: NaCl treated diabetic rats modeled with heart failure; conditions: 10 weeks; for BNP: blood plasma
Protocol: Second batch: NaCl treated diabetic rats modeled with heart failure for 20 weeks and normal control rats synchronically and conventionally drinking water were divided into 5 groups: normal control rats synchronically and conventionally drinking water group (Normal Control), model control group (Model Control), the compound A group (ig, 9 mg/kg), the compound A group (ig, 36 mg/kg), administered with drug once per day for consecutive 10 weeks. The pharmacodynamic evaluation on left ventricular function was conducted by using a ventricular chatheterization method.
as §1

[4] = tested on: AGE-BSA-collagen cross-links; conditions: n = 5
Protocol: AGE cross-link structures were prepared in vitro by cross-linking AGE-BSA to rat tail collagen coated on a 96 well ELISA plate. A ELISA method was used to evaluate the breaking effect of the compounds on AGE cross-links.
Normal Wister rats (body weight of 200±20 g) were sacrificed acutely, the tails were excised, and tail collagen was prepared at a temperature of 4° C. as follows. Tail tendon collagen fibrils were taken out, washed with physiological saline, peeled off non-collagen fibril tissues, rinsed with double-distilled water 3 times, cut into pieces, and immersed in 0.1% glacial acetic acid at 4° C. for one week during which it was shaken frequently. […] After dilution, the protein content was measured. […]
A solution containing 50 mg/ml of bovine serum albumin BSA (V) (Roch) and 0.5M of glucose in 0.2M PBS (pH 7.4) was incubated in dark at 37° C. under sterile condition for 3-4 months, to thereby form glycosylated BSA, i.e. BSA-AGE. […] Fluorescence scanning (Exi/Em (395/460 nm)) and SDS-PAGE were used to check the formation of BSA-AGE, and protein concentration was determined by the Lowery method.
The tail collagen coated 96 well ELISA plates were full-well treated with PBS (pH 7.4) for 1 hour to neutralize the acidic collagen. […] Within 10 minutes after the reaction, optical density (OD) was read at 450 nm on the BOBRAD Model 550 plate reader with the blank wells of the plates was set to 0. […]

[5] = diabetic-hypertension rats, A 18 mg/kg intragastric once per day, 4 weeks

Cc1csc[n+]1CC(=O)O.[Na+] [A, 3-carboxymethyl-4-methyl-thiazolium bromide sodium]
HR (diabetic rats; 9 mg/kg i.g.): 361.80 ± 39.74 beat/min | LVEDP (diabetic rats; 9 mg/kg i.g.): 5.73 ± 1.44 mmHg | LVSP (diabetic rats; 9 mg/kg i.g.): 161.54 ± 13.98 mmHg | Neg dp/dt (diabetic rats; 9 mg/kg i.g.): 7762.8 ± 320.2 mmHg/s | Pos dp/dt (diabetic rats; 9 mg/kg i.g.): 12201.2 ± 1872.2 mmHg/s | HR (diabetic rats; 18 mg/kg i.g.): 377.35 ± 17.54 beat/min | LVEDP (diabetic rats; 18 mg/kg i.g.): 6.87 ± 1.26 mmHg | LVSP (diabetic rats; 18 mg/kg i.g.): 170.65 ± 8.94 mmHg | Neg dp/dt (diabetic rats; 18 mg/kg i.g.): 7660.8 ± 1154.8 mmHg/s | Pos dp/dt (diabetic rats; 18 mg/kg i.g.): 11712.8 ± 1370.9 mmHg/s | HR (diabetic rats; 36 mg/kg i.g.): 368.99 ± 31.66 beat/min | LVEDP (diabetic rats; 36 mg/kg i.g.): 6.79 ± 2.47 mmHg | LVSP (diabetic rats; 36 mg/kg i.g.): 168.25 ± 15.48 mmHg | Neg dp/dt (diabetic rats; 36 mg/kg i.g.): 7675.4 ± 2216.6 mmHg/s | Pos dp/dt (diabetic rats; 36 mg/kg i.g.): 11425.3 ± 1660.0 mmHg/s | effect on left ventricular functions (diabetic rats; 4 weeks of administration): significant effect in improving left ventricular functions | DBP [1, 5]: 144.2 ± 11.1 mmHg | HR [1, 5]: 408.7 ± 35.7 beat/min | MBP [1, 5]: 153.5 ± 13.7 mmHg | PP [1, 5]: 22.9 ± 3.8 mmHg | SBP [1, 5]: 166.6 ± 12.4 mmHg | change in heart rate and blood pressure ([1]; diabetic-hypertension rats, compound A for 4 weeks): no significant change | hypotensive extent of nifedipine ([1]; fourth dosage of nifedipine (62.5 μg/ml) i.v., after 4 weeks of A 18 mg/kg, model group 18.92±10.54): 29.99±9.06 mmHg | hypotensive effect of nifedipine vs diabetic-hypertension model group ([1]; from second dosage of nifedipine (15.62 μg/ml), after 4 weeks of A 18 mg/kg): increased hypotensive effect | hypotensive extent of nifedipine ([1]; third dosage of nifedipine (31.25 μg/ml) i.v., after 4 weeks of A 18 mg/kg, model group 9.35±6.46): 19.49±13.29 mmHg | E/A ratio ([2]; 10th week of administration (30th week of modeling), model control 2.5±0.31): 1.32±0.31 | Ea/Aa ratio vs model ([2]; 10th week of administration): increased significantly | LVDd and LVDs vs model ([2]; 10th week of administration): slight decrease | PWd vs model ([2]; 10th week of administration): slight increase | E/A ratio ([2]; 16th week of administration (36th week of modeling), model control 2.5±0.52): 1.45±0.18 | Heart rate ([3]; 9 mg/kg ig): 418.3 ± 27.2 Beats/min | LVEDP ([3]; 9 mg/kg ig): 11.6 ± 2.9^d mmHg | LVSP ([3]; 9 mg/kg ig): 187.6 ± 22.3 mmHg | Neg dp/pt ([3]; 9 mg/kg ig): 10729 ± 2035^d mmHg/s | Pos dp/pt ([3]; 9 mg/kg ig): 10729 ± 2035^d mmHg/s | Heart rate ([3]; 36 mg/kg ig): 406.1 ± 32.9 Beats/min | LVEDP ([3]; 36 mg/kg ig): 13.0 ± 6.1^d mmHg | LVSP ([3]; 36 mg/kg ig): 189.2 ± 13.8 mmHg | Neg dp/pt ([3]; 36 mg/kg ig): 10033 ± 2044^d mmHg/s | Pos dp/pt ([3]; 36 mg/kg ig): 10033 ± 2044^d mmHg/s | BNP ([3]; 9 mg/kg ig): 50.8 ± 5.7 pg/mL | BNP ([3]; 36 mg/kg ig): 51.3 ± 8.1 pg/mL | Breaking rate (decrease % in OD) ([4]; 0.01 umol/L): 8.1 ± 4.76, n =5% | Breaking rate (decrease % in OD) ([4]; 0.1 umol/L): 11.3 ± 7.70, n = 5%
